{
  "source": "patent US11413321B2",
  "about": "“Pharmaceutical composition for use in increasing hair, modifying scalp or skin, healing a wound, promoting osteogenesis, or modifying hair” (priority 2017, dated 2022)",
  "format_in_all_cases": "in vivo, Wistar rat",
  "key": {"[1]": {"test_system": "Cxcl12", "test": "Quantitative PCR of dorsal tissues after subcutaneous administration (Cxcl12)", "settings": "20 μL per location into rat dorsal part; vs control without administration; FIG. 15", "protocol": "(§1) 2.) C—X—C motif chemokine ligand 12 (Cxcl12), transcript variant 1, Rattus norvegicus: mRNA 1,880 bp NM 022177.3 GI: 7649650 Next, a change in gene expression in tissues was examined. Three regions were set between the head and the tail of the dorsal part of a 12-week-old Wistar rat (male), and each region was divided between the left and the right of the backbone into two regions to set a total of six regions on the dorsal part. Milk or palmitic acid was injected in an amount of 20 μL per location at two locations in the vicinity of the center of each region. The distance between the two locations was 1 cm. The collected tissue fragments were frozen with liquid nitrogen, and stored at −80° C. […] Analysis of gene expression by quantitative PCR was performed in the following manner: Integrated DNA technologies, Inc (Skokie, Ill., USA) was requested to design and synthesize gene-specific primers and probes, and using PrimeTime Gene Expression Master Mix Reagent (Integrated DNA Technologies, Inc, Skokie, Ill., USA) and Rotor-Gene Q PCR Apparatus (QIAGEN GmbH, Hilden, Germany), PCR analysis was performed twice per gene per specimen to analyze the expression level of a target gene. […]"}, "[2]": {"test_system": "Itga4", "test": "Quantitative PCR of dorsal tissues after subcutaneous administration (Itga4)", "settings": "20 μL per location into rat dorsal part; vs control without administration; FIG. 15", "protocol": "as §1, with “4.) Integrin subunit alpha 4 (Itga4),” for “2.) C—X—C motif chemokine ligand 12 (Cxcl12), transcript variant 1,”, “3,736” for “1,880”, “001107737.1” for “022177.3”, “157819948” for “7649650”"}, "[3]": {"test_system": "full-thickness skin defect", "test": "Wound healing score, circular full-thickness skin defect on the dorsal part", "settings": "20 μL administration liquid containing 1 mg of the fatty acid at each of four locations; FIG. 6C", "protocol": "Formation of wounds: hair on the dorsal part of a 12-week-old Wistar rat was shaven with hair clippers, and a circular full-thickness skin defect with a diameter of 8 mm was produced on each of the left and right sides of the head and the left and right sides of the tail. The full-thickness skin defect was formed at four locations per body.\nAdministration of milk: 20 μL of milk was subcutaneously injected at each of four locations, namely upper, lower, left and right, in a place 4 mm away from the peripheral edge of the wound. As the milk, the commercially available bovine milk sterilized by heating (at 130 degrees for 2 seconds and 65 degrees for 30 minutes) as described in Example 1 was used.\nAdministration of fatty acid: As a fatty acid contained in the milk, sterile purified water (administration liquid) containing palmitic acid, stearic acid, myristic acid, linolenic acid, α-linoleic acid and oleic acid, respectively was administered. Here, the water was heated and administered for the saturated fatty acids, and the water was administered at room temperature for the unsaturated fatty acids. 20 μL of the administration liquid (containing 1 mg of the fatty acid) was subcutaneously administered at each of four locations, namely upper, lower, left and right, in a place 4 mm away from the peripheral edge of the wound.\nScore 4: The reduction ratio of the area of the wound site is 70% or more.\nScore 3: The reduction ratio of the area of the wound site is 50% or more and less than 70%.\nScore 2: The reduction ratio of the area of the wound site is 20% or more and less than 50%.\nScore 1: The reduction ratio of the area of the wound site is less than 20%.\nThe result was given as a ratio obtained by dividing the above score by the score for physiological saline.\nTwo tubes of 8 mL of commercially available milk sterilized at a low temperature (65 degrees for 30 minutes) were centrifuged by a centrifugal separator (2600 g×6 minutes), 2 mL of one fourth of the supernatant exclusive of a whip portion was collected from each tube, the two collected liquids were combined to obtain 4 mL of a liquid, and 4 mL of the resulting liquid was stirred, and used for experiments (hereinafter, the obtained sample is referred to as a “centrifuged sample”). The obtained centrifuged sample was administered to the wound site at a dosage of 20 μL per location in the same manner as described above. The results are shown in “Centrifuged Sample” in FIG. 6A.\nNext, a wound healing-promoting effect of lactoferrin was examined. As lactoferrin, Nice rim essence 62971 (trade name) purchased from Lion Corporation was used and administered at one location in an amount of 20 μg or 60 μg in the same manner as described above. Specifically, the lactoferrin was ground, and then thoroughly dissolved in purified water. The lactoferrin concentration was adjusted so that an injection amount of 20 μL included the above administration amount. The result was given as a value obtained by dividing each of scores after seven days and after ten days by the score for the physiological saline administration group."}},
  "data": [
    {"smiles": "CCCCCCCCCCCCCCCC(=O)O", "note": "[palmitic acid]", "values": [
      {"measurement": "expression level of Cxcl12 in tissues", "setting": "[1]", "value": "greatly increased"},
      {"measurement": "expression level of Itga4 in tissues", "setting": "[2]", "value": "greatly increased"},
      {"measurement": "wound healing-promoting effect (score divided by the score for physiological saline)", "setting": "[3]", "value": "high promoting effect"}
    ]}
  ]
}
